From patent US6472348B1, “Pyridone derivatives and herbicides” (Kumiai Chemical Industry Co., Ltd., priority 1996, dated 2002)

What was measured:
monochoria (Mo) = experiment: Test Example 1: herbicidal effects by paddy field soil treatment; type: in vivo; details: 100 g of the active ingredient per 10 ares, 21st day after the application, index 0-5 of Table 47;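 note: grade of growth control; 5 = at least 90%; 4 = 70 to 90%; 3 = 50 to 70%; 2 = 30 to 50%; 1 = 10 to 30%; 0 = under 10%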
In short: (§1)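 Flooded paddy-soil pots (3 cm water) sown after puddling/leveling; treatment 100 g a.i./10 ares; greenhouse culture; herbicidal effect rated visually on a scoring scale at 21 d post-application.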

bulrush (Sc) = experiment: as above; type: in vivo; details: 100 g of the active ingredient per 10 ares, 21st day after the application, index 0-5 of Table 47;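 note: grade of growth control; 5 = at least 90%; 4 = 70 to 90%; 3 = 50 to 70%; 2 = 30 to 50%; 1 = 10 to 30%; 0 = under 10%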
In short: as §1

barnyardgrass (Ec) = experiment: as above; type: in vivo; details: 100 g of the active ingredient per 10 ares, 21st day after the application, index 0-5 of Table 47;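 note: grade of growth control; 5 = at least 90%; 4 = 70 to 90%; 3 = 50 to 70%; 2 = 30 to 50%; 1 = 10 to 30%; 0 = under 10%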
In short: as §1

wheat (Tr) [1] = experiment: Test Example 5: crop plant selectivity by upland field soil treatment (wheat), phytotoxicity; type: in vivo; design: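 grade of crop injury; 5 = at least 90%; 4 = 70 to 90%; 3 = 50 to 70%; 2 = 30 to 50%; 1 = 10 to 30%; 0 = under 10%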; details: 21st day after application
In short: (§2)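 Upland soil treatment test: crop and weed species sown in sand-filled pots and covered with soil before compound application. Visual scoring of weed control and wheat injury 21 days post-application, plants kept in a greenhouse, using a standard rating scale.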

China jute (Ab) [2] = experiment: Test Example 5: crop plant selectivity by upland field soil treatment (wheat), herbicidal effects; type: in vivo; design: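 grade of growth control; 5 = at least 90%; 4 = 70 to 90%; 3 = 50 to 70%; 2 = 30 to 50%; 1 = 10 to 30%; 0 = under 10%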; details: 21st day after application
In short: as §2

corn (Ze) = experiment: Test Example 7: crop plant selectivity by upland field soil treatment (corn), phytotoxicity; type: in vivo; design: scale not given here; details: 21st day after application
In short: (§3)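 Greenhouse pot test: scores for herbicidal effect and corn phytotoxicity were given 21 days after soil treatment, against set rating standards. Crop and weed species (foxtail, smartweed, amaranth, lambsquarters, China jute) were sown together in sand and covered with soil beforehand.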

China jute (Ab) [3] = experiment: Test Example 7: crop plant selectivity by upland field soil treatment (corn), herbicidal effects; type: in vivo; design: scale not given here; details: 21st day after application
In short: as §3

slender amaranth (Am) = experiment: as above; type: in vivo; design: scale not given here; details: 21st day after application
In short: as §3

[4] = test system: common lambsquarters (Ch); experiment: as above; type: in vivo; design: scale not given here; details: 21st day after application
In short: as §3

green foxtail (Se) = experiment: as above; type: in vivo; design: scale not given here; details: 21st day after application
In short: as §3

pale smartweed (Po) = experiment: as above; type: in vivo; design: scale not given here; details: 21st day after application
In short: as §3

wheat (Tr) [5] = experiment: Test Example 9: crop plant selectivity by upland field foliage treatment (wheat), phytotoxicity; details: dose 1.6 g ai/10a, 14th day after treatment;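 note: grade of crop injury; 5 = at least 90%; 4 = 70 to 90%; 3 = 50 to 70%; 2 = 30 to 50%; 1 = 10 to 30%; 0 = under 10%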
In short: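 Read-out: weed control and wheat injury, rated by a defined scoring standard 14 days after foliar application.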

| SMILES | Herbicidal effects Mo (monochoria (Mo)) | Herbicidal effects Sc (bulrush (Sc)) | Herbicidal effects Ec (barnyardgrass (Ec)) | Phytotoxicity Tr (wheat (Tr) [1]; dose 1.6 g ai/10a) | Phytotoxicity Tr (wheat (Tr) [1]; dose 6.3 g ai/10a) | Herbicidal effects Ab (China jute (Ab) [2]; dose 1.6 g ai/10a) | Herbicidal effects Ab (China jute (Ab) [2]; dose 6.3 g ai/10a) | Phytotoxicity Ze (corn (Ze); dose 1.6 g ai/10a) | Phytotoxicity Ze (corn (Ze); dose 6.3 g ai/10a) | Herbicidal effects Ab (China jute (Ab) [3]; dose 1.6 g ai/10a) | Herbicidal effects Ab (China jute (Ab) [3]; dose 6.3 g ai/10a) | Herbicidal effects Am (slender amaranth (Am); dose 1.6 g ai/10a) | Herbicidal effects Am (slender amaranth (Am); dose 6.3 g ai/10a) | Herbicidal effects Ch ([4]; dose 1.6 g ai/10a) | Herbicidal effects Ch ([4]; dose 6.3 g ai/10a) | Herbicidal effects Se (green foxtail (Se); dose 1.6 g ai/10a) | Herbicidal effects Se (green foxtail (Se); dose 6.3 g ai/10a) | Herbicidal effects Po (pale smartweed (Po); dose 1.6 g ai/10a) | Herbicidal effects Po (pale smartweed (Po); dose 6.3 g ai/10a) | Phytotoxicity Tr (wheat (Tr) [5]) |
| --- | --- | --- | --- | --- | --- | --- | --- | --- | --- | --- | --- | --- | --- | --- | --- | --- | --- | --- | --- | --- |
| Cn1cc(-c2cc(Oc3ccccc3)c(Cl)cc2F)c(=O)cc1C(F)(F)F [Compound No. 6-19, 5-(4-chloro-2-fluoro-5-phenoxyphenyl)-1-methyl-2-trifluoromethyl-4(1H)-pyridone] | 5 | 5 | 5 | 0 | 0 | 3 | 5 |  |  |  |  |  |  |  |  |  |  |  |  |  |
| C#CCn1c(=O)sc2cc(F)c(-c3ccc(C(F)(F)F)n(C)c3=O)cc21 [Compound No. 3-1, 3-[6-fluoro-3-(2-propynyl)-benzothiazolin-2-on-5-yl]-1-methyl-6-trifluoromethyl-2(1H)-pyridone] | 5 | 5 | 5 |  | 1 |  | 5 | 2 | 2 | 5 | 5 | 5 | 5 | 5 | 5 | 5 | 5 | 5 | 5 |  |
| COCc1cc2c(-c3ccc(C(F)(F)F)n(C)c3=O)c(F)cc(Cl)c2o1 [Compound No. 4-4, 3-(7-chloro-5-fluoro-2-methoxymethylbenzofuran-4-yl)-1-methyl-6-trifluoromethyl-2-(1H)-pyridone] | 5 | 5 | 5 | 2 |  | 5 |  | 1 | 2 | 5 | 5 | 5 | 5 | 5 | 5 | 5 | 5 | 5 | 5 |  |
| CCc1cc2c(-c3ccc(C(F)(F)F)n(C)c3=O)c(F)cc(Cl)c2o1 [Compound 4-2] | 5 | 5 | 5 | 1 |  | 5 |  | 1 | 1 | 5 | 5 | 5 | 5 | 5 | 5 | 5 | 5 | 5 | 5 | 2 |
| C=CCOc1cc(-c2ccc(C(F)(F)F)n(C)c2=O)c(F)cc1Cl [1-16] | 5 | 5 | 5 | 1 | 1 | 5 | 5 | 0 | 1 | 5 | 5 | 5 | 5 | 5 | 5 | 5 | 5 | 5 | 5 | 2 |
| C#CC(C)Oc1cc(-c2ccc(C(F)(F)F)n(C)c2=O)c(F)cc1Cl (stereo not drawn) [1-17] | 5 | 5 | 5 | 1 |  | 5 |  | 1 | 1 | 5 | 4 | 5 | 5 | 5 | 5 | 5 | 5 | 5 | 5 |  |
| C=CCN1C(=O)COc2cc(F)c(-c3ccc(C(F)(F)F)n(C)c3=O)cc21 [Compound 2-7] | 5 | 5 | 5 | 0 |  | 5 |  |  |  |  |  |  |  |  |  |  |  |  |  |  |
| CCOCOc1cc(-c2ccc(C(F)(F)F)n(C)c2=O)c(F)cc1Cl [1-181] | 5 | 5 | 5 |  | 1 |  | 5 |  |  |  |  |  |  |  |  |  |  |  |  | 2 |
| Cc1cc2c(-c3ccc(C(F)(F)F)n(C)c3=O)c(F)cc(Cl)c2o1 [Compound 4-1] | 5 | 5 | 5 | 1 | 2 | 5 | 5 | 0 | 1 | 5 | 5 | 5 | 5 | 5 | 5 | 5 | 5 | 5 | 5 | 2 |
| CON=Cc1cc(-c2ccc(C(F)(F)F)n(C)c2=O)c(F)cc1Cl [Compound No. 1-72, 5-(1-methyl-6-trifluoromethyl-2(1H)-pyridon-3-yl)-2-chloro-4-fluorobenzaldehydeoxime-O-methyl ether] | 5 | 5 | 5 | 1 |  | 5 |  | 0 |  | 5 |  | 5 |  | 5 |  | 5 |  | 5 |  |  |
